Measurements as given in patent publication US9399649B2, “Compounds for treating spinal muscular atrophy” (PTC Therapeutics Inc., priority 2012, dated 2016).

What was measured:
[1] = system: full length SMN2 minigene mRNA containing SMN2 exon 7; assay: SMN2 minigene mRNA splicing RT-qPCR assay in cultured cells; assay type: cell-based, human; conditions: Homo sapiens, HEK293-H; HEK293H cells stably transfected with SMN2-A minigene, 24 hours, 7-point concentration curve; concentration giving 1.5-fold full length SMN2 mRNA vs vehicle; read-out: EC1.5x for production of full length SMN2 mRNA
Protocol: The reverse transcription-quantitative PCR-based (RT-qPCR) assay is used to quantify the level of the full length SMN2 minigene mRNA containing SMN2 exon 7 in a HEK293H cell line stably transfected with said minigene and treated with a test compound.
HEK293H cells stably transfected with the SMN2-A minigene construct described above (10,000 cells/well) are seeded in 200 ut, of cell culture medium (DMEM plus 10% FBS, with 200 μg/mL hygromycin) in 96-well flat-bottom plates and the plate is immediately swirled to ensure proper dispersal of cells, forming an even monolayer of cells. Cells are allowed to attach for at least 4-6 hours. Test compounds are serially diluted 3.16-fold in 100% DMSO to generate a 7-point concentration curve. A solution of test compound (1 μL, 200× in DMSO) is added to each cell-containing well and the plate is incubated for 24 hours in a cell culture incubator (37° C., 5% CO2, 100% relative humidity). 2 replicates are prepared for each test compound concentration. The cells are then lysed in Cells-To-Ct lysis buffer and the lysate is stored at −80° C.
Primer SMN Forward A (SEQ ID NO. 1) hybridizes to a nucleotide sequence in exon 7 (nucleotide 22 to nucleotide 40), primer SMN Reverse A (SEQ ID NO. 2) hybridizes to a nucleotide sequence in the coding sequence of Firefly luciferase, SMN Probe A (SEQ ID NO. 3) hybridizes to a nucleotide sequence in exon 7 (nucleotide 50 to nucleotide 54) and exon 8 (nucleotide 1 to nucleotide 21). The combination of these three oligonucleotides detects only SMN1 or SMN2 minigenes (RT-qPCR) and will not detect endogenous SMN1 or SMN2 genes.
The SMN forward and reverse primers are used at final concentrations of 0.4 μM. The SMN probe is used at a final concentration of 0.15 μM. The GAPDH primers are used at final concentrations of 0.2 μM and the probe at 0.15 μM.
The SMN2-minigene GAPDH mix (15 μL total volume) is prepared by combining 7.5 μL of 2×RT-PCR buffer, 0.4 μL of 25×RT-PCR enzyme mix, 0.75 μL of 20×GAPDH primer-probe mix, 4.0075 μL of water, 2 μL of 10-fold diluted cell lysate, 0.06 μL of 100 μM SMN forward primer, 0.06 μL of 100 μM SMN reverse primer, and 0.225 μL of 100 μM SMN probe.
PCR is carried out at the following temperatures for the indicated time: Step 1: 48° C. (15 min); Step 2: 95° C. (10 min); Step 3: 95° C. (15 sec); Step 4: 60° C. (1 min); then repeat Steps 3 and 4 for a total of 40 cycles.
Each reaction mixture contains both SMN2-A minigene and GAPDH primersprobe sets (multiplex design), allowing simultaneous measurement of the levels of two transcripts.
Two SMN spliced products are generated from the SMN2 minigene. The first spliced product containing exon 7, corresponding to full length SMN2 mRNA, is referred to herein using the term “SMN2 minigene FL.” The second spliced product lacking exon 7 is referred to herein using the term “SMN2 minigene Δ7.”
The increase of SMN2 minigene FL mRNA relative to that in cells treated with vehicle control is determined from real-time PCR data using a modified ΔΔCt method (as described in Livak and Schmittgen, Methods, 2001, 25:402-8). The amplification efficiency (E) is calculated from the slope of the amplification curve for SMN2 minigene FL and GAPDH individually. The abundances of SMN2 minigene FL and GAPDH are then calculated as (1+E)^−Ct, where Ct is the threshold value for each amplicon. The abundance of SMN2 minigene FL is normalized to GAPDH abundance. The normalized SMN2 minigene FL abundance from test compound-treated samples is then divided by normalized SMN2 minigene FL abundance from vehicle-treated cells to determine the level of SMN2 FL mRNA relative to vehicle control.

[2] = system: Smn protein; assay: Smn protein assay in cultured cells (SMN HTRF); assay type: cell-based, human; conditions: SMA patient fibroblast cells (GM03813), 48 hours; for maximum fold (Fold) increase of Smn protein: 7-point concentration data, relative to vehicle control; for EC1.5x for Smn protein expression: 7-point concentration curve, concentration producing 1.5 times Smn protein vs DMSO vehicle
Protocol: The SMN HTRF (homogeneous time resolved fluorescence) assay is used to quantify the level of Smn protein in SMA patient fibroblast cells treated with test compounds.
Cells are thawed and cultured in DMEM-10% FBS for 72 hours. Cells are trypsinized, counted and re-suspended to a concentration of 25,000 cells/mL in DMEM-10% FBS. The cell suspensions are plated at 5,000 cells per well in a 96 well microtiter plate and incubated for 3 to 5 hours. […] Test compounds are serially diluted 3.16-fold in 100% DMSO to generate a 7-point concentration curve. 1 μL of test compound solution is transferred to cell-containing wells and cells are incubated for 48 hours in a cell culture incubator (37° C., 5% CO2, 100% relative humidity). Triplicate samples are set up for each test compound concentration. After 48 hours, the supernatant is removed from the wells and 25 μL of the RIPA lysis buffer, containing protease inhibitors, is added to the wells and incubated with shaking at room temperature for 1 hour. 25 μL of the diluent is added and then 35 μL of the resulting lysate is transferred to a 384-well plate, where each well contains 5 μL of the antibody solution (1:100 dilution of anti-SMN d2 and anti-SMN kryptate in SMN reconstitution buffer). The plate is centrifuged for 1 minute to bring the solution to the bottom of the wells, then incubated overnight at room temperature. Fluorescence for each well of the plate at 665 nm and 620 nm is measured on an EnVision multilabel plate reader (Perkin-Elmer).
The normalized fluorescence signal is calculated for each sample, Blank and vehicle control well by dividing the signal at 665 nm by the signal at 620 nm. Normalizing the signal accounts for possible fluorescence quenching due to the matrix effect of the lysate. The ΔF value (a measurement of Smn protein abundance as a percent value) for each sample well is calculated by subtracting the normalized average fluorescence for the Blank control wells from the normalized fluorescence for each sample well, then dividing this difference by the normalized average fluorescence for the Blank control wells and multiplying the resulting value by 100. The ΔF value for each sample well represents the Smn protein abundance from test compound-treated samples. The ΔF value for each sample well is divided by the ΔF value for the vehicle control wells to calculate the fold increase in Smn protein abundance relative to the vehicle control.

Structure (SMILES) | EC (1.5-fold) [1] [µM] | maximum fold (Fold) increase of Smn protein [2] | melting point [°C] | EC1.5x for Smn protein expression [2]
CN1CCN(c2ccc3cc(-c4cn5ccsc5n4)oc(=O)c3c2)CC1 [Cpd 33, 3-(imidazo[2,1-b][1,3]thiazol-6-yl)-7-(4-methylpiperazin-1-yl)-1H-isochromen-1-one] | 1 to 3 | * (A maximum fold increase of ≦1.2 is indicated by one star (*)) | 236 to 238 | –
COc1ccccc1-c1cc2ccc(N3CCN(C)CC3)cc2c(=O)o1 [Cpd 22, 3-(2-methoxyphenyl)-7-(4-methylpiperazin-1-yl)-1H-isochromen-1-one] | 1 to 3 | * (A maximum fold increase of ≦1.2 is indicated by one star (*)) | 118 to 120 | –
Cc1cn2cc(-c3cc4ccc(N5CCN(CCO)[C@H](C)C5)cc4c(=O)o3)nc2cn1 [Cpd 133, 7-[(3R)-4-(2-hydroxyethyl)-3-methylpiperazin-1-yl]-3-(6-methylimidazo[1,2-a]pyrazin-2-yl)-1H-isochromen-1-one] | ≤ 0.1 | ***** (a fold increase >1.65 is indicated by five stars (*****)) | – | **** (an EC1.5×≦0.3 nM is indicated by four stars (****))
C[C@H]1CN(c2ccc3cc(-c4ccc(O)c(O)c4)oc(=O)c3c2)CCN1 [Cpd 41, 3-(3,4-dihydroxyphenyl)-7-[(3S)-3-methylpiperazin-1-yl]-1H-isochromen-1-one] | 0.3 to 1 | *** (a fold increase between >1.35 and ≦1.5 is indicated by three stars (***)) | 220 to 222 | –
Cc1cn2cc(-c3cc4ccc(N5CCN(C6CCC6)[C@H](C)C5)cc4c(=O)o3)nc2c(C)n1 [Cpd 143, 7-[(3R)-4-cyclobutyl-3-methylpiperazin-1-yl]-3-(6,8-dimethylimidazo[1,2-a]pyrazin-2-yl)-1H-isochromen-1-one] | ≤ 0.1 | ***** (a fold increase >1.65 is indicated by five stars (*****)) | 281 to 285 | **** (an EC1.5×≦0.3 nM is indicated by four stars (****))
Cc1cn2cc(-c3cc4ccc(N5CCN(C(C)C)[C@H](C)C5)cc4c(=O)o3)nc2c(C)n1 [Cpd 144, 3-(6,8-dimethylimidazo[1,2-a]pyrazin-2-yl)-7-[(3R)-3-methyl-4-(propan-2-yl)piperazin-1-yl]-1H-isochromen-1-one] | ≤ 0.1 | ***** (a fold increase >1.65 is indicated by five stars (*****)) | 262 to 267 | **** (an EC1.5×≦0.3 nM is indicated by four stars (****))
CCc1nc(C)cn2cc(-c3cc4ccc(N5CCNCC5)cc4c(=O)o3)nc12 [Cpd 150, 3-(8-ethyl-6-methylimidazo[1,2-a]pyrazin-2-yl)-7-(piperazin-1-yl)-1H-isochromen-1-one] | ≤ 0.1 | ***** (a fold increase >1.65 is indicated by five stars (*****)) | – | **** (an EC1.5×≦0.3 nM is indicated by four stars (****))
COc1ccc(-c2cc3ccc(N4CCN(C)CC4)cc3c(=O)o2)cc1OC [Cpd 16, 3-(3,4-dimethoxyphenyl)-7-(4-methylpiperazin-1-yl)-1H-isochromen-1-one] | 0.3 to 1 | *** (a fold increase between >1.35 and ≦1.5 is indicated by three stars (***)) | – | –
Cc1cn2cc(-c3cc4ccc(N5CCNCC5)cc4c(=O)o3)nc2c(C)n1 [Cpd 62, 3-(6,8-dimethylimidazo[1,2-a]pyrazin-2-yl)-7-(piperazin-1-yl)-1H-isochromen-1-one] | ≤ 0.1 | ***** (a fold increase >1.65 is indicated by five stars (*****)) | – | **** (an EC1.5×≦0.3 nM is indicated by four stars (****))
Cc1cn2cc(-c3cc4ccc(N5CCN6CCC[C@@H]6C5)cc4c(=O)o3)nc2c(C)n1 [Cpd 70, 3-(6,8-dimethylimidazo[1,2-a]pyrazin-2-yl)-7-[(8aR)-hexahydropyrrolo[1,2-a]pyrazin-2(1H)-yl]-1H-isochromen-1-one] | 0.1 to 0.3 | **** (a fold increase between >1.5 and ≦1.65 is indicated by four stars (****)) | – | *** (an EC1.5× between >0.3 nM and ≦1 nM is indicated by three stars (***))
Cc1cn2cc(-c3cc4ccc(C5CCN(C6CCC6)CC5)cc4c(=O)o3)nc2c(C)n1 [Cpd 118, 7-(1-cyclobutylpiperidin-4-yl)-3-(6,8-dimethylimidazo[1,2-a]pyrazin-2-yl)-1H-isochromen-1-one] | ≤ 0.1 | **** (a fold increase between >1.5 and ≦1.65 is indicated by four stars (****)) | – | **** (an EC1.5×≦0.3 nM is indicated by four stars (****))
Cc1cn2cc(-c3cc4ccc(N5C[C@@H](C)N(C6CCC6)[C@@H](C)C5)cc4c(=O)o3)nc2cn1 [Cpd 132, 7-[(3R,5S)-4-cyclobutyl-3,5-dimethylpiperazin-1-yl]-3-(6-methylimidazo[1,2-a]pyrazin-2-yl)-1H-isochromen-1-one] | ≤ 0.1 | ***** (a fold increase >1.65 is indicated by five stars (*****)) | – | **** (an EC1.5×≦0.3 nM is indicated by four stars (****))
Cc1cn2cc(-c3cc4ccc(N5CCN(CCO)[C@@H](C)C5)cc4c(=O)o3)nc2c(C)n1 [Cpd 134, 3-(6,8-dimethylimidazo[1,2-a]pyrazin-2-yl)-7-[(3S)-4-(2-hydroxyethyl)-3-methylpiperazin-1-yl]-1H-isochromen-1-one] | ≤ 0.1 | ***** (a fold increase >1.65 is indicated by five stars (*****)) | – | **** (an EC1.5×≦0.3 nM is indicated by four stars (****))
